Results taken from US5439933A (priority 1993, dated 1995).
In brackets after ≈: the same amount, converted by molar mass.

Legend:
Assay type in all cases: cell-based
[1] = test system: HEp-2 human epidermoid carcinoma cells; test: Cell proliferation assay (cell counts), HEp-2; settings: Table 5, 72 hours
Method: (§1) Tolytoxin and the other new scytophycin compounds are potent anticancer and antifungal agents. The cytotoxicity of tolytoxin and other new scytophycin compounds was determined using a cell proliferation assay, which tested the effect of the compounds on increases in cell numbers.
(§2) Cell lines were grown in plastic dishes (Falcon) in Eagle's basal medium supplemented with 5% newborn calf serum (KB), Fisher's medium supplemented with 10% horse serum (L1210), Dulbecco's modified Eagle's medium supplemented with 5% heat-inactivated fetal calf serum (LoVo), minimal essential medium supplemented with 2% heat-inactivated chicken serum (HEp-2), RPMI-1640 supplemented with 10% heat-inactivated fetal calf serum (T-47D, COLO-201) or 20% heat-inactivated fetal calf serum (HL-60, KATO-III), or McCoy's 5A supplemented with 10% heat-inactivated fetal calf serum (HBL-100). All cell culture media were supplemented with 50 μg/ml gentamycin sulfate. The cultures were incubated at 37° C. in a humidified atmosphere containing 5% carbon dioxide.
(§3) Cultures were exposed to graded concentrations of tolytoxin and reincubated for 72 hours in the presence of tolytoxin. […] Cell numbers were determined by hemacytometer counts. The IC50 for each cell line was determined by plotting the logarithm of the tolytoxin concentration versus growth (cell number as a percentage of the control) of the treated cells.

[2] = test system: L1210 murine leukemia cells; test: Cell proliferation assay (cell counts), L1210; settings: Mus musculus, L1210, 72 h
Method: as §1, §2
(§4) Cultures were exposed to graded concentrations of tolytoxin and reincubated for 72 hours in the presence of tolytoxin. Three dishes were used for each treatment. Cell numbers were determined by hemacytometer counts. The IC50 for each cell line was determined by plotting the logarithm of the tolytoxin concentration versus growth (cell number as a percentage of the control) of the treated cells.
(§5) The other new scytophycin compounds are also potent cytotoxins. For example, the IC50 of the scytophycins against KB human epidermoid carcinoma, LoVo human adenocarcinoma, and L1210 murine leukemia were determined using the cell proliferation assay described for tolytoxin.

[3] = test system: KATO-III human gastric carcinoma cells; test: Cell proliferation assay (cell counts), KATO-III; settings: Table 5, 72 hours
Method: as §1, §2, §3

[4] = test system: HL-60 human promyelocytic leukemia cells; test: Cell proliferation assay (cell counts), HL-60; settings: Table 5, 72 hours
Method: as §1, §2, §3

[5] = test system: Phytophthora nicotianae H729; test: Antifungal agar dilution; settings: Phytophthora nicotianae, 48 h
Method: (§6) The new scytophycins are also useful as antifungal agents. Antimicrobial activity was determined by the agar dilution method. Tolytoxin was dissolved in 95% ethanol for addition to cooled, molten agar. Nystatin was solubilized in DMSO and diluted in distilled water. Appropriate solvent controls were also prepared. Fungal cultures were grown on Saboraud dextrose agar. Assay plates were incubated for 48 hours post-inoculation. Yeasts and filamentous fungi were incubated at 25° C.
(§7) Activity was determined using the method described above for tolytoxin.

Saccharomyces cerevisae = test: Antifungal agar dilution; settings: Saccharomyces, 48 h
Method: as §6, §7

Sclerotium rofsii 2133 = test: Antifungal agar dilution; settings: 48 h
Method: as §6, §7

Candida albicans A26 = test: Antifungal agar dilution; settings: Candida albicans, A26, 48 h
Method: as §6, §7

[6] = test system: Thielaviopsis paradoxa 1215; test: Antifungal agar dilution; settings: Thielaviopsis paradoxa, 1215, 48 h
Method: as §6, §7

[7] = test system: Human ovarian carcinoma cells (SKOV3); test: cells; settings: SK-OV-3, 48 h, read-out: IC50 SKOV3
Method: Human ovarian carcinoma cells (SKOV3) and a subline made multi-drug resistant by slowly increasing vinblastine in the culture medium over the course of many passages (SKVLB) were grown in Earle's basal medium (BME) containing 10% fetal calf serum. The SKVLB cells were maintained in the presence of 1 µg/mL vinblastine. The multi-drug resistant cell line is resistant to adriamycin, vinblastine, actinomycin D, and colchicine.
Cell proliferation was estimated by measurement of protein content of the cultured cells, as described by Skehan et al. (1990). Cells were plated into 24-well plates at approximately 10% confluency in BME and were allowed to attach and recover for at least 24 hours. The cells were then treated with the scytophycins or appropriate control for 48 hours. After the incubation, the medium was removed from each well and cells fixed by addition of 10% (w/v) trichloroacetic acid (TCA) (4° C.). The cells were incubated at 4° C. for one hour and then washed five times with water to remove TCA. The TCA-fixed cells were then stained for 30 minutes with 0.4% (w/v) sulforhodamine B prepared in 1% acetic acid. Following the staining, the cell layers were washed four times with 1% acetic acid. The cell layer was dissolved in 10 mM unbuffered tris-hydroxymethylaminomethane base. Absorbance of the solution was determined at 564 nm. Antiproliferative activity is manifested as decreased production of cellular protein.

[8] = test system: KB human epidermoid carcinoma cells; test: Cell proliferation assay (cell counts), KB; settings: 72 h
Method: as §1, §2, §4, §5

Question: What does the source list for `COC1CC2C=CCC(CC(OC)C3(CO3)C(OC)CC(OC)C(C)C(C(C)C(O)C(C)CCC(=O)C(C)C(OC)C(C)/C=C/N(C)C=O)OC(=O)/C=C/C(C)=C/C1O)O2` (centres unmarked) [Tolytoxin, 6-hydroxy-7-O-methylscytophycin B]?
Answer: IC50 [1]: 2.3 nM; IC50 [2]: 3.9 nM; IC50 [3]: 0.78 nM; IC50 [4]: 4.8 nM; MIC [5]: 4 nM (≈ 3.4 ng/mL); MIC (Saccharomyces cerevisae): 4 nM (≈ 3.4 ng/mL); MIC (Sclerotium rofsii 2133): 1 nM (≈ 0.85 ng/mL); MIC (Candida albicans A26): 8 nM (≈ 6.8 ng/mL); MIC [6]: 1 nM (≈ 0.85 ng/mL); IC50 [7]: 25 nM; IC50 [8]: 5.3 nM
